Measurements reported in ChEMBL document CHEMBL1201862, “PubChem BioAssay data set” (2004).
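Each compound was tested at five concentrations against cells in 96-well plates for 48 hours. GI50 is the concentration that inhibits growth by half.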 Calls of active or inactive are those of the source. Cut-off read from the data, not from the text of the source: active = GI50 up to about 1.1 µM and inactive = higher. Where a SMILES comes first, the peptide text is derived from it. The star is where a group is joined. Boc = CC(C)(C)OC(=O)*

How the values were obtained:
Assay in all cases: growth of human tumour cells (NCI), 48 h
T47D = test system: T47D
SN12C = test system: SN12C
SK-MEL-5 = test system: SK-MEL-5
Malme-3M = test system: Malme-3M
COLO 205 = test system: COLO 205
UACC-62 = test system: UACC-62
SNB-19 = test system: SNB-19
HCT-116 = test system: HCT-116
NCI-H460 = test system: NCI-H460
PC-3 = test system: PC-3
NCI-H522 = test system: NCI-H522
SK-MEL-2 = test system: SK-MEL-2
A549 = test system: A549
MDA-MB-231 = test system: MDA-MB-231
CCRF-CEM = test system: CCRF-CEM
HT-29 = test system: HT-29
Hs-578T = test system: Hs-578T
OVCAR-8 = test system: OVCAR-8
OVCAR-5 = test system: OVCAR-5
EKVX = test system: EKVX

Measured: GI50

CCCCCCCCCCCCn1c(=O)cc(NCCCC)c2cc3c(NCCCC)cc(=O)n(CCCCCCCCCCCC)c3nc21
inactive: T47D > 100 µM | SN12C > 100 µM | SK-MEL-5 > 100 µM | Malme-3M > 100 µM | COLO 205 > 100 µM | UACC-62 > 100 µM | SNB-19 > 100 µM | HCT-116 > 100 µM | NCI-H460 > 100 µM | PC-3 > 100 µM | NCI-H522 > 100 µM | SK-MEL-2 > 100 µM | A549 > 100 µM | MDA-MB-231 > 100 µM

Cc1c2c(n3c(nc4ccccc43)c1C#N)N(c1ccc(F)cc1)CC2
inactive: SN12C > 100 µM | SK-MEL-5 > 100 µM | Malme-3M > 100 µM | COLO 205 > 100 µM | CCRF-CEM > 100 µM | UACC-62 > 100 µM | SNB-19 > 100 µM | HCT-116 > 100 µM | NCI-H460 > 100 µM | HT-29 > 100 µM | Hs-578T 71.1 µM | OVCAR-8 > 100 µM | PC-3 > 100 µM | NCI-H522 > 100 µM | SK-MEL-2 > 100 µM | A549 > 100 µM | OVCAR-5 > 100 µM

CN(C(=O)C1=CCC2(CC1)OCCO2)c1ccccc1I
inactive: EKVX > 100 µM | T47D > 100 µM | SN12C > 100 µM | SK-MEL-5 > 100 µM | COLO 205 > 100 µM | CCRF-CEM > 100 µM | UACC-62 > 100 µM | SNB-19 > 100 µM | HCT-116 > 100 µM | NCI-H460 > 100 µM | HT-29 > 100 µM | OVCAR-8 > 100 µM | PC-3 > 100 µM | NCI-H522 > 100 µM | SK-MEL-2 > 100 µM | A549 > 100 µM | OVCAR-5 > 100 µM | MDA-MB-231 > 100 µM

CC(C)(C)OC(=O)NC(Cc1ccc(OCc2ccccc2)cn1)C(N)=O (centres undefined)
inactive: EKVX > 100 µM | SN12C > 100 µM | SK-MEL-5 26 µM | Malme-3M > 100 µM | COLO 205 > 100 µM | CCRF-CEM > 100 µM | SNB-19 > 100 µM | HCT-116 > 100 µM | NCI-H460 > 100 µM | HT-29 > 100 µM | Hs-578T > 100 µM | OVCAR-8 > 100 µM | PC-3 > 100 µM | NCI-H522 80 µM | A549 > 100 µM | OVCAR-5 > 100 µM | MDA-MB-231 > 100 µM

Cc1ccc(C(=O)c2[nH]c(NCc3ccccc3)c(C(=S)Nc3ccccc3)c2N)cc1
inactive: EKVX 13.6 µM | T47D 10.3 µM | SN12C 14.5 µM | COLO 205 3.87 µM | CCRF-CEM 5.16 µM | UACC-62 11.8 µM | SNB-19 14.7 µM | HCT-116 4.35 µM | NCI-H460 5.64 µM | HT-29 3.24 µM | OVCAR-8 12.1 µM | PC-3 11.9 µM | NCI-H522 2.21 µM | SK-MEL-2 10.8 µM | A549 9.2 µM | OVCAR-5 14 µM | MDA-MB-231 6.55 µM

COc1cc(C2SCC(=O)N2c2cccc(Cl)c2)cc(OC)c1OC (centres undefined)
inactive: EKVX 76.9 µM | SN12C 56.9 µM | SK-MEL-5 > 100 µM | COLO 205 > 100 µM | CCRF-CEM 27.7 µM | UACC-62 11.3 µM | SNB-19 11.4 µM | HCT-116 58.9 µM | NCI-H460 > 100 µM | HT-29 > 100 µM | Hs-578T > 100 µM | OVCAR-8 > 100 µM | PC-3 > 100 µM | NCI-H522 21.2 µM | SK-MEL-2 > 100 µM | A549 > 100 µM | OVCAR-5 > 100 µM | MDA-MB-231 > 100 µM

COc1ccc2cc(C(=O)Nc3ccc(O)c(C(=O)O)c3)ccc2c1OC
inactive: EKVX > 100 µM | T47D > 100 µM | SN12C > 100 µM | SK-MEL-5 > 100 µM | Malme-3M > 100 µM | CCRF-CEM > 100 µM | UACC-62 > 100 µM | SNB-19 > 100 µM | HCT-116 > 100 µM | NCI-H460 > 100 µM | HT-29 > 100 µM | OVCAR-8 > 100 µM | PC-3 > 100 µM | NCI-H522 49.4 µM | SK-MEL-2 > 100 µM | OVCAR-5 > 100 µM | MDA-MB-231 > 100 µM

COC(=O)[C@H](COC(C)(C)C)NC(=O)N[C@H](C)c1ccccc1
inactive: EKVX > 100 µM | SN12C > 100 µM | SK-MEL-5 > 100 µM | COLO 205 > 100 µM | CCRF-CEM > 100 µM | UACC-62 > 100 µM | SNB-19 > 100 µM | HCT-116 > 100 µM | NCI-H460 > 100 µM | HT-29 > 100 µM | Hs-578T > 100 µM | OVCAR-8 > 100 µM | PC-3 > 100 µM | NCI-H522 > 100 µM | SK-MEL-2 > 100 µM | A549 > 100 µM | OVCAR-5 > 100 µM | MDA-MB-231 > 100 µM

COC(=O)c1cc(S(=O)(=O)NC2=NNC(C)CN2)c(S)cc1Cl (centres undefined)
inactive: EKVX 90.2 µM | SN12C > 100 µM | SK-MEL-5 26.4 µM | Malme-3M 24 µM | COLO 205 52.7 µM | CCRF-CEM 84.1 µM | UACC-62 47 µM | SNB-19 85.1 µM | HCT-116 30.6 µM | NCI-H460 44.8 µM | HT-29 42.7 µM | OVCAR-8 34.8 µM | PC-3 42.8 µM | NCI-H522 19.5 µM | SK-MEL-2 26 µM | A549 30.1 µM | OVCAR-5 65.3 µM | MDA-MB-231 > 100 µM

CC1(C)C=C(/C=N/Nc2ccccc2)C(C#N)=C(O)C1(C#N)C#N
inactive: EKVX > 100 µM | SN12C > 100 µM | SK-MEL-5 > 100 µM | Malme-3M > 100 µM | COLO 205 74.1 µM | CCRF-CEM 68.4 µM | UACC-62 > 100 µM | SNB-19 > 100 µM | HCT-116 > 100 µM | NCI-H460 92.7 µM | HT-29 93.8 µM | Hs-578T > 100 µM | OVCAR-8 > 100 µM | PC-3 36.7 µM | NCI-H522 > 100 µM | A549 > 100 µM | OVCAR-5 > 100 µM | MDA-MB-231 > 100 µM

C(CCCCc1nnc(N2CCOCC2)o1)CCCc1nnc(N2CCOCC2)o1
inactive: EKVX > 100 µM | SN12C > 100 µM | SK-MEL-5 > 100 µM | COLO 205 > 100 µM | CCRF-CEM > 100 µM | SNB-19 > 100 µM | HCT-116 > 100 µM | NCI-H460 > 100 µM | HT-29 > 100 µM | OVCAR-8 > 100 µM | PC-3 > 100 µM | SK-MEL-2 > 100 µM | A549 > 100 µM | OVCAR-5 > 100 µM | MDA-MB-231 > 100 µM

c1csc(-c2ccsc2-c2cccs2)c1
inactive: EKVX > 100 µM | T47D 29.9 µM | SN12C > 100 µM | SK-MEL-5 98.9 µM | COLO 205 52.2 µM | CCRF-CEM 76.9 µM | UACC-62 > 100 µM | HCT-116 92.9 µM | NCI-H460 80.9 µM | HT-29 > 100 µM | Hs-578T 52.8 µM | OVCAR-8 > 100 µM | NCI-H522 31.5 µM | A549 19.2 µM | OVCAR-5 > 100 µM

COC(=O)C(Cc1c[nH]c2ccccc12)NC(=O)C(Cc1c[nH]c2ccccc12)NC(=O)C(Cc1c[nH]c2ccccc12)NC(=O)C(Cc1c[nH]c2ccccc12)NC(=O)C(Cc1c[nH]c2ccccc12)NC(=O)C(Cc1c[nH]c2ccccc12)NC(=O)C(Cc1c[nH]c2ccccc12)NC(=O)OC(C)(C)C (centres undefined) (Boc-WWWWWWW-OMe; configuration not given here)
inactive: T47D > 100 µM | SN12C 62.2 µM | SK-MEL-5 20.9 µM | Malme-3M 34.5 µM | CCRF-CEM 92.7 µM | UACC-62 51.5 µM | SNB-19 47.8 µM | HCT-116 33.3 µM | NCI-H460 > 100 µM | HT-29 > 100 µM | OVCAR-8 > 100 µM | PC-3 > 100 µM | NCI-H522 54.6 µM | SK-MEL-2 17.1 µM | A549 31.9 µM | OVCAR-5 42.4 µM | MDA-MB-231 > 100 µM

C[C@@H](Oc1ccc(Oc2cnc3ccc(Cl)cc3n2)cc1)C(=O)O [R(+)XK469]
inactive: T47D > 100 µM | SN12C > 100 µM | SK-MEL-5 67.5 µM | Malme-3M > 100 µM | COLO 205 59.3 µM | CCRF-CEM 97.3 µM | UACC-62 66.7 µM | SNB-19 > 100 µM | HCT-116 94.2 µM | NCI-H460 11.2 µM | HT-29 > 100 µM | Hs-578T 60.1 µM | OVCAR-8 > 100 µM | PC-3 > 100 µM | NCI-H522 19.1 µM | SK-MEL-2 > 100 µM | A549 55.5 µM | OVCAR-5 > 100 µM

COc1cc(O)c2c(=O)c(O)c(-c3ccc(O)c(O)c3)oc2c1 [RHAMNETIN]
inactive: EKVX 10.2 µM | T47D 19.6 µM | SK-MEL-5 10.5 µM | Malme-3M 17.7 µM | COLO 205 13.5 µM | CCRF-CEM 3.61 µM | UACC-62 7.91 µM | SNB-19 12.2 µM | HCT-116 14.6 µM | NCI-H460 4.25 µM | HT-29 15.9 µM | OVCAR-8 10.7 µM | PC-3 19.7 µM | NCI-H522 3.15 µM | A549 15 µM | OVCAR-5 19.7 µM | MDA-MB-231 10.7 µM
